Tested on: LG0703-F498-PDC complex spheroid growth
Assay: Anticancer human tumor LG0703-F498-PDC patient-derived lung adenocarcinoma cell line growth inhibition [AhR]
Settings: for IC50: curve of first compound; for viability, T/C: stronger effect = lower value
Excerpt: Multicellular complex tumor spheroid response to aryl hydrocarbon receptor antagonists in combination with a variety of drugs and investigational agents in selected tumor cell lines
The current study was undertaken to assess response to aryl hydrocarbon receptor antagonists in combination with standard-of-care drugs and investigational agents in solid tumor complex spheroid models. Complex spheroids include a stromal component modeled by human endothelial cells (HUVEC) and fibroblasts modeled by human mesenchymal stem cells (MSCs). The concentration ranges selected for each drug and investigational agent were based upon clinically achievable concentrations if the clinical Cmax of the agent was known.
Compounds. The drugs and investigational agents: BAY 2416964 (NSC825713), GNF351 (NSC835774), CH-223191 (NSC835775), CPI-455 (NSC825282), aza-TdCyd (NSC777586), decitabine (NSC127716), belinostat (NSC758774), entinostat (NSC756642), pevonedistat (NSC761192), tazemetostat (NSC777109), talazoparib (NSC765396), olaparib (NSC753686), selinexor (NSC780203), nedisertib (M3814, NSC802822), bortezomib (NSC756655), venetoclax (NSC766270), doxorubicin (NSC123127), elimusertib (BAY189344, NSC800525), ceralasertib (AZD6738, NSC777638), TAK-243 (NSC785004), alisertib (NSC759677), etoposide (NSC141540), topotecan (NSC609699), eribulin (NSC707389), gemcitabine (NSC613327), carboplatin (NSC241240), cisplatin (NSC119875), and SN-38 (NSC673596) were obtained from the National Cancer Institute (NCI) Developmental Therapeutics Program Chemical Repository (32). The FDA-approved anticancer drug set is available from the Developmental Therapeutics Program at https://dtp.cancer.gov/organization/dscb/obtaining/available plates.htm. […] The stock solutions were prepared in dimethyl sulfoxide (DMSO, Sigma-Aldrich, St. Louis, MO, cat. D2650), except for the platinum compounds which were prepared in saline (Quality Biological, Gaithersburg, MD, cat. 114-055-101), at 800-fold the tested concentration and stored at -70 degrees C prior to their use. All drugs and investigational agents were tested over a range starting from a high concentration at or near the clinical Cmax and decreasing in half-log increments. If the clinical Cmax for an agent had not been determined, the highest concentration tested was 10 microM (Table 1).
Cell Culture. All cells were maintained in an incubator at 37 degrees C and 5% CO2 with 95% humidity. The PDC lines were cultured according to standard operating procedures established by the NCI PDMR (https://pdmr.cancer.gov). Briefly, all PDCs were thawed and cultured in Matrigel-coated flasks prepared with a working solution of 1X Ham's F-12 nutrient mix, without supplementation (Invitrogen, Waltham, MA, cat. 11765054), 100 U/mL penicillin-streptomycin (Invitrogen, cat. 15140122), and 2.5% Matrigel (Corning Inc., Corning, NY, cat. 354248) for the first three passages. All PDCs were cultured in complete DMEM/F-12 media containing advanced DMEM/F-12 (Invitrogen, cat. 12634028), 4.9% defined fetal bovine serum, heat inactivated (HyClone Laboratories Inc., Logan, UT, cat. SH30070.03HI), 389 ng/mL hydrocortisone (Sigma-Aldrich, cat. H4001), 9.7 ng/mL human EGF recombinant protein (Invitrogen, cat. PHG0313), 23.4 microg/mL adenine (Sigma-Aldrich, cat. A2786), 97.3 U/mL penicillin-streptomycin (Invitrogen, cat. 15140122), 1.9 mM L-glutamine (Invitrogen, cat. 25030081), and 9.7 microM Y-27632 dihydrochloride (Tocris Bioscience, Bristol, United Kingdom, cat. 1254). The PDCs were cultured in complete DMEM/F12 media without 10 microM Y-27632 dihydrochloride for at least two passages prior to the screen. The established cell lines NCI-H1341 and […] were cultured in DMEM/F-12, HEPES (Invitrogen, cat. 11330032), 5% defined fetal bovine serum (HyClone Laboratories Inc., cat. SH30070.03), ITS premix universal culture supplement [insulin (5 microg/mL), transferrin (5 microg/mL), and selenious acid (5 ng/mL)] […]

[1] = second compound 0.1 µM, first compound 0.0316 µM
[2] = second compound 0.1 µM, first compound 0.1 µM
[3] = second compound 0.316 µM, first compound 0.0316 µM
[4] = second compound 0.316 µM, first compound 0.1 µM
[5] = second compound 1 µM, first compound 0.0316 µM
[6] = second compound 1 µM, first compound 0.1 µM
[7] = second compound 3.16 µM, first compound 0.0316 µM
[8] = second compound 3.16 µM, first compound 0.1 µM
[9] = second compound 10 µM, first compound 0.0316 µM
[10] = second compound 10 µM, first compound 0.1 µM
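Note: luminescence taken as a proxy for viable cell amount.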
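Throughout, for viability, T/C: percent of DMSO vehicle control where 100% means growth equal to vehicle.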

Question: Which IC50 (second compound 0.1 µM) does the source give for `CC[C@@]1(O)C(=O)OCc2c1cc1n(c2=O)Cc2cc3c(CN(C)C)c(O)ccc3nc2-1` + CC(CO)NC(=O)c1cc(-c2ccc(Cl)cc2)nn(-c2cnn(C)c2)c1=O here?
Answer: The IC50 was greater than 0.1 µM.

Question: What about the IC50 (second compound 0.316 µM) of the same compound?
Answer: The IC50 was greater than 0.1 µM.

Question: And the IC50 (second compound 1 µM)?
Answer: The IC50 was greater than 0.1 µM.

Question: What about the IC50 (second compound 3.16 µM) of the same compound?
Answer: The IC50 was greater than 0.1 µM.

Question: And the IC50 (second compound 10 µM)?
Answer: Its IC50 is greater than 0.1 µM.

Question: And the viability, T/C (second compound 0.1 µM, first compound 0.000316 µM)?
Answer: The viability, T/C was 89%.

Question: And the viability, T/C (second compound 0.1 µM, first compound 0.001 µM)?
Answer: Its viability, T/C is 101%.

Question: What about the viability, T/C (second compound 0.1 µM, first compound 0.00316 µM) of the same compound?
Answer: Its viability, T/C is 86.7%.

Question: And the viability, T/C (second compound 0.1 µM, first compound 0.01 µM)?
Answer: The viability, T/C was 90.6%.

Question: And the viability, T/C [1]?
Answer: The viability, T/C was 83.2%.

Question: What about the viability, T/C [2] of the same compound?
Answer: The viability, T/C was 66.1%.

Question: And the viability, T/C (second compound 0.316 µM, first compound 0.000316 µM)?
Answer: Its viability, T/C is 96%.

Question: What about the viability, T/C (second compound 0.316 µM, first compound 0.001 µM) of the same compound?
Answer: Its viability, T/C is 99.5%.

Question: And the viability, T/C (second compound 0.316 µM, first compound 0.00316 µM)?
Answer: Its viability, T/C is 92.3%.

Question: And the viability, T/C (second compound 0.316 µM, first compound 0.01 µM)?
Answer: Its viability, T/C is 80.9%.

Question: What about the viability, T/C [3] of the same compound?
Answer: The viability, T/C was 73.2%.

Question: What about the viability, T/C [4] of the same compound?
Answer: The viability, T/C was 57.2%.

Question: And the viability, T/C (second compound 1 µM, first compound 0.000316 µM)?
Answer: The viability, T/C was 80.8%.

Question: What about the viability, T/C (second compound 1 µM, first compound 0.001 µM) of the same compound?
Answer: The viability, T/C was 93.2%.

Question: What about the viability, T/C (second compound 1 µM, first compound 0.00316 µM) of the same compound?
Answer: Its viability, T/C is 84.5%.

Question: And the viability, T/C (second compound 1 µM, first compound 0.01 µM)?
Answer: The viability, T/C was 77.4%.

Question: And the viability, T/C [5]?
Answer: The viability, T/C was 78.6%.

Question: And the viability, T/C [6]?
Answer: The viability, T/C was 61.2%.

Question: And the viability, T/C (second compound 3.16 µM, first compound 0.000316 µM)?
Answer: The viability, T/C was 76%.

Question: What about the viability, T/C (second compound 3.16 µM, first compound 0.001 µM) of the same compound?
Answer: The viability, T/C was 86.3%.

Question: What about the viability, T/C (second compound 3.16 µM, first compound 0.00316 µM) of the same compound?
Answer: The viability, T/C was 90.8%.

Question: What about the viability, T/C (second compound 3.16 µM, first compound 0.01 µM) of the same compound?
Answer: The viability, T/C was 79.2%.

Question: And the viability, T/C [7]?
Answer: The viability, T/C was 58.6%.

Question: And the viability, T/C [8]?
Answer: Its viability, T/C is 52.9%.

Question: And the viability, T/C (second compound 10 µM, first compound 0.000316 µM)?
Answer: The viability, T/C was 79.2%.

Question: And the viability, T/C (second compound 10 µM, first compound 0.001 µM)?
Answer: The viability, T/C was 79.7%.

Question: And the viability, T/C (second compound 10 µM, first compound 0.00316 µM)?
Answer: The viability, T/C was 86.6%.

Question: What about the viability, T/C (second compound 10 µM, first compound 0.01 µM) of the same compound?
Answer: The viability, T/C was 66.5%.

Question: And the viability, T/C [9]?
Answer: The viability, T/C was 63.4%.

Question: And the viability, T/C [10]?
Answer: The viability, T/C was 51.9%.

Question: What does the source list for `COc1cc(C2c3cc4c(cc3C(OC3OC5COC(C)OC5C(O)C3O)C3COC(=O)C23)OCO4)cc(OC)c1O` (stereo not given) + CC(CO)NC(=O)c1cc(-c2ccc(Cl)cc2)nn(-c2cnn(C)c2)c1=O?
Answer: IC50 (second compound 0.1 µM): > 10 µM; IC50 (second compound 0.316 µM): > 10 µM; IC50 (second compound 1 µM): > 10 µM; IC50 (second compound 3.16 µM): > 10 µM; IC50 (second compound 10 µM): > 10 µM; viability, T/C [1]: 111%; viability, T/C [2]: 108%; viability, T/C (second compound 0.1 µM, first compound 0.316 µM): 93.9%; viability, T/C (second compound 0.1 µM, first compound 1 µM): 87.9%; viability, T/C (second compound 0.1 µM, first compound 3.16 µM): 81.8%; viability, T/C (second compound 0.1 µM, first compound 10 µM): 76.3%; viability, T/C [3]: 98.6%; viability, T/C [4]: 107%; viability, T/C (second compound 0.316 µM, first compound 0.316 µM): 99.8%; viability, T/C (second compound 0.316 µM, first compound 1 µM): 81.5%; viability, T/C (second compound 0.316 µM, first compound 3.16 µM): 93.3%; viability, T/C (second compound 0.316 µM, first compound 10 µM): 69.9%; viability, T/C [5]: 100%; viability, T/C [6]: 103%; viability, T/C (second compound 1 µM, first compound 0.316 µM): 101%; viability, T/C (second compound 1 µM, first compound 1 µM): 94.3%; viability, T/C (second compound 1 µM, first compound 3.16 µM): 75.7%; viability, T/C (second compound 1 µM, first compound 10 µM): 75.2%; viability, T/C [7]: 91.1%; viability, T/C [8]: 95.8%; viability, T/C (second compound 3.16 µM, first compound 0.316 µM): 96.5%; viability, T/C (second compound 3.16 µM, first compound 1 µM): 81.7%; viability, T/C (second compound 3.16 µM, first compound 3.16 µM): 72.8%; viability, T/C (second compound 3.16 µM, first compound 10 µM): 75.5%; viability, T/C [9]: 84.3%; viability, T/C [10]: 85.7%; viability, T/C (second compound 10 µM, first compound 0.316 µM): 90.7%; viability, T/C (second compound 10 µM, first compound 1 µM): 78%; viability, T/C (second compound 10 µM, first compound 3.16 µM): 73%; viability, T/C (second compound 10 µM, first compound 10 µM): 60.8%
